Data as given in patent US12152018B2, “Compounds and compositions for treating conditions associated with STING activity” (IFM Due, Inc., priority 2021, dated 2024).

Biological target: hSTING (Homo sapiens, UniProt Q86WV6)
Experiment: STING reporter assay in THP1-Dual KO-IFNAR2 cells (2′3′cGAMP stimulation, luciferase reporter)
Type: cell-based
Conditions: 15 μM 2′3′cGAMP, 24 h, luciferase reporter activity
Procedure: STING pathway activation by the compounds described herein was measured using THP1-Dual™ cells (KO-IFNAR2).
THP1-Dual™ KO-IFNAR2 Cells (obtained from invivogen) were maintained in RPMI, 10% FCS, 5 ml P/S, 2 mM L-glut, 10 mM Hepes, and 1 mM sodium pyruvate. Compounds were spotted in empty 384 well tissue culture plates (Greiner 781182) by Echo for a final concentration of 0.0017-100 μM. Cells were plated into the TC plates at 40 μL per well, 2×10E6 cells/mL. For activation with STING ligand, 2′3′cGAMP (MW 718.38, obtained from Invivogen), was prepared in Optimem media.
The following solutions were prepared for each 1×384 plate: • Solution A: 2 mL Optimem with one of the following stimuli: • 60 μL of 10 mM 2′3′cGAMP→150 μM stock • Solution B: 2 mL Optimem with 60 μL Lipofectamine 2000→Incubate 5 min at RT
2 mL of solution A and 2 ml Solution B was mixed and incubated for 20 min at room temperature (RT). 20 μL of transfection solution (A+B) was added on top of the plated cells, with a final 2′3′cGAMP concentration of 15 μM. The plates were then centrifuged immediately at 340 g for 1 minute, after which they were incubated at 37° C., 5% CO2, >98% humidity for 24 h. Luciferase reporter activity was then measured. EC50 values were calculated by using standard methods known in the art.
Luciferase reporter assay: 10 μL of supernatant from the assay was transferred to white 384-plate with flat bottom and squared wells. One pouch of QUANTI-Luc™ Plus was dissolved in 25 mL of water. 100 μL of QLC Stabilizer per 25 mL of QUANTI-Luc™ Plus solution was added. 50 μL of QUANTI-Luc™ Plus/QLC solution per well was then added. Luminescence was measured on a Platereader (e.g., Spectramax I3X (Molecular Devices GF3637001)).
Luciferase reporter activity was then measured. EC50 values were calculated by using standard methods known in the art.

Chain of hSTING (Q86WV6 whole entry R71H/G230A/H232R/R293Q, form open): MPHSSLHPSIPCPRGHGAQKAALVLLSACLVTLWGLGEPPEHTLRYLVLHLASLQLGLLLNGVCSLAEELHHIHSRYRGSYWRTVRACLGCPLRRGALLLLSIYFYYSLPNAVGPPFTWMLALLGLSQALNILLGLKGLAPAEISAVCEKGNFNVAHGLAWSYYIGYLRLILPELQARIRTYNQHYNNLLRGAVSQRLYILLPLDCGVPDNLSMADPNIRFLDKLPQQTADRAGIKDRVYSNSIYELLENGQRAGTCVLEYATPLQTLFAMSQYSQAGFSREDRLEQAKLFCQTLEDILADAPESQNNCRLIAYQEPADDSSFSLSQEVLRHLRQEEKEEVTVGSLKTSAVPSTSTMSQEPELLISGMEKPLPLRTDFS

| Structure (SMILES) | EC50 [nM] |
| --- | --- |
| CNC(=O)Nc1c[nH]c2ccc(-c3cnn(-c4cccc(C#N)c4)c3)cc12 [Compound 116, 1-{5-[1-(3-cyanophenyl)-1H-pyrazol-4-yl]-1H-indol-3-yl}-3-methylurea] | 5000 to 100000 |
| O=C(NCC1CC1)Nc1c[nH]c2ccc(-c3cnn(-c4ccc(C(F)(F)F)cc4)c3)cc12 [Compound 109, 1-(cyclopropylmethyl)-3-(5-(1-(4-(trifluoromethyl)phenyl)-1H-pyrazol-4-yl)-1H-indol-3-yl)urea] | 200 to 1000 |
| CNC(=O)Nc1c[nH]c2ccc(-c3ccc(C4(C#N)CC4)cc3)cc12 [Compound 121, 1-{5-[4-(1-cyanocyclopropyl)phenyl]-1H-indol-3-yl}-3-methylurea] | 5000 to 100000 |
| CCc1ccc(-n2cc(-c3ccc4[nH]cc(NC(=O)N[C@H]5C[C@H](OC)C5)c4c3)cn2)cc1 [Compound 125, 1-(5-(1-(4-ethylphenyl)-1H-pyrazol-4-yl)-1H-indol-3-yl)-3-((1r,3r)-3-methoxycyclobutyl)urea] | 200 to 1000 |
| CCc1ccc(-n2cc(-c3ccc4[nH]cc(NC(=O)NCC5CCCC5)c4c3)cn2)cc1 [Compound 111, 1-(cyclopentylmethyl)-3-{5-[1-(4-ethylphenyl)-1H-pyrazol-4-yl]-1H-indol-3-yl}urea] | 200 to 1000 |
| CCc1ccc(-n2cc(-c3ccc4[nH]cc(NC(=O)NC5CCC5)c4c3)cn2)cc1 [Compound 126, 1-cyclobutyl-3-(5-(1-(4-ethylphenyl)-1H-pyrazol-4-yl)-1H-indol-3-yl)urea] | 200 to 1000 |
| CCc1ccc(-n2cc(-c3ccc4[nH]cc(NC(=O)NCC5CC5)c4c3)cn2)cc1 [Compound 128, 1-(cyclopropylmethyl)-3-(5-(1-(4-ethylphenyl)-1H-pyrazol-4-yl)-1H-indol-3-yl)urea] | 200 to 1000 |
| CCc1ccc(-n2cc(-c3ccc4[nH]cc(NC(=O)N5CCCC5)c4c3)cn2)cc1 [Compound 112, N-(5-(1-(4-ethylphenyl)-1H-pyrazol-4-yl)-1H-indol-3-yl)pyrrolidine-1-carboxamide] | 200 to 1000 |
| CCc1ccc(-n2cc(-c3ccc4[nH]cc(NC(=O)NCC(F)(F)F)c4c3)cn2)cc1 [Compound 129, 1-{5-(1-(4-ethylphenyl)-1H-pyrazol-4-yl]-1H-indol-3-yl}-3-(2,2,2-trifluoroethyl)urea] | 40 to 200 |
| O=C(NCC1CC1)Nc1c[nH]c2ccc(-c3cnn(Cc4ccc(C(F)(F)F)cc4)c3)cc12 [Compound 103, 1-(cyclopropylmethyl)-3-(5-(1-(4-(trifluoromethyl)benzyl)-1H-pyrazol-4-yl)-1H-indol-3-yl)urea] | 200 to 1000 |
| CNC(=O)Nc1c[nH]c2ccc(-c3ccnc(N4CCCCC4)c3)cc12 [Compound 117, 3-methyl-1-{5-[2-(piperidin-1-yl)pyridin-4-yl]-1H-indol-3-yl}urea] | 5000 to 100000 |
| CC(C)(O)CNC(=O)Nc1c[nH]c2ccc(-c3cnn(-c4ccc(C(F)(F)F)cc4)c3)cc12 [Compound 102, 1-(2-hydroxy-2-methylpropyl)-3-(5-(1-(4-(trifluoromethyl)phenyl)-1H-pyrazol-4-yl)-1H-indol-3-yl)urea] | 200 to 1000 |
| CCc1ccc(-n2cc(-c3ccc4[nH]cc(NC(=O)NCCC(F)(F)F)c4c3)cn2)cc1 [Compound 114, 1-(5-(1-(4-ethylphenyl)-1H-pyrazol-4-yl)-1H-indol-3-yl)-3-(3,3,3-trifluoropropyl)urea] | 40 to 200 |

More lines, now with the values ahead:

| EC50 [nM] | Structure (SMILES) |
| --- | --- |
| 200 to 1000 | CCc1ccc(-n2cc(-c3ccc4[nH]cc(NC(=O)NCC(F)F)c4c3)cn2)cc1 [Compound 127, 1-(2,2-difluoroethyl)-3-(5-(1-(4-ethylphenyl)-1H-pyrazol-4-yl)-1H-indol-3-yl)urea] |
| 5000 to 100000 | CNC(=O)Nc1c[nH]c2ccc(-c3cnn(C4CCCC4)c3)cc12 [Compound 123, 1-[5-(1-cyclopentyl-1H-pyrazol-4-yl)-1H-indol-3-yl]-3-methylurea] |
| 200 to 1000 | CCc1ccc(-n2cc(-c3ccc4[nH]cc(NC(=O)N(C)C)c4c3)cn2)cc1 [Compound 119, 3-(5-(1-(4-ethylphenyl)-1H-pyrazol-4-yl)-1H-indol-3-yl)-1,1-dimethylurea] |
| 200 to 1000 | O=C(NCC(F)(F)F)Nc1c[nH]c2ccc(-c3cnn(-c4ccc(C(F)(F)F)cc4)c3)cc12 [Compound 104, 1-(2,2,2-trifluoroethyl)-3-(5-(1-(4-(trifluoromethyl)phenyl)-1H-pyrazol-4-yl)-1H-indol-3-yl)urea] |
| 200 to 1000 | CCc1ccc(-n2cc(-c3ccc4[nH]cc(NC(=O)NC)c4c3)cn2)cc1 [Compound 132, 1-(5-(1-(4-ethylphenyl)-1H-pyrazol-4-yl)-1H-indol-3-yl)-3-methylurea] |
| 1000 to 5000 | CNC(=O)Nc1c[nH]c2ccc(-c3cnn(-c4ccccc4)c3)cc12 [Compound 131, 3-methyl-1-[5-(1-phenyl-1H-pyrazol-4-yl)-1H-indol-3-yl]urea] |
| 200 to 1000 | O=C(NCC1CC1)Nc1c[nH]c2ccc(-c3cnn(-c4ccc(C(F)(F)F)cn4)c3)cc12 [Compound 106, 1-(cyclopropylmethyl)-3-(5-(1-(5-(trifluoromethyl)pyridin-2-yl)-1H-pyrazol-4-yl)-1H-indol-3-yl)urea] |
| 1000 to 5000 | CC(=O)N1CCC(NC(=O)Nc2c[nH]c3ccc(-c4cnn(-c5ccc(C(F)(F)F)cc5)c4)cc23)C1 (centres unmarked) [Compound 101, 1-(1-acetylpyrrolidin-3-yl)-3-(5-(1-(4-(trifluoromethyl)phenyl)-1H-pyrazol-4-yl)-1H-indol-3-yl)urea] |
| 200 to 1000 | CCc1ccc(-n2cc(-c3ccc4[nH]cc(NC(=O)NC5CCCC5)c4c3)cn2)cc1 [Compound 120, 1-cyclopentyl-3-(5-(1-(4-ethylphenyl)-1H-pyrazol-4-yl)-1H-indol-3-yl)urea] |
| 1000 to 5000 | CNC(=O)Nc1c[nH]c2ccc(-c3cnn(-c4ccccc4Cl)c3)cc12 [Compound 115, 1-{5-[1-(2-chlorophenyl)-1H-pyrazol-4-yl]-1H-indol-3-yl}-3-methylurea] |
| 200 to 1000 | CNC(=O)Nc1c[nH]c2ccc(-c3cnn(-c4ccc(C(F)(F)F)cc4)c3)cc12 [Compound 118, 1-methyl-3-(5-(1-(4-(trifluoromethyl)phenyl)-1H-pyrazol-4-yl)-1H-indol-3-yl)urea] |
| 200 to 1000 | CCc1ccc(-n2cc(-c3ccc4[nH]cc(NC(=O)NC(C)C)c4c3)cn2)cc1 [Compound 130, 1-(5-(1-(4-ethylphenyl)-1H-pyrazol-4-yl)-1H-indol-3-yl)-3-isopropylurea] |
| 200 to 1000 | CNC(=O)Nc1c[nH]c2ccc(-c3cnn(Cc4ccc(C(F)(F)F)cc4)c3)cc12 [Compound 105, 1-methyl-3-(5-(1-(4-(trifluoromethyl)benzyl)-1H-pyrazol-4-yl)-1H-indol-3-yl)urea] |
| 200 to 1000 | CCc1ccc(-n2cc(-c3ccc4[nH]cc(NC(=O)NC5CCOC5)c4c3)cn2)cc1 (centres unmarked) [Compound 124, 1-(5-(1-(4-ethylphenyl)-1H-pyrazol-4-yl)-1H-indol-3-yl)-3-(tetrahydrofuran-3-yl)urea] |
| 200 to 1000 | CNC(=O)Nc1c[nH]c2ccc(-c3cnn(-c4cccc(Cl)c4)c3)cc12 [Compound 113, 1-{5-[1-(3-chlorophenyl)-1H-pyrazol-4-yl]-1H-indol-3-yl}-3-methylurea] |
| 1000 to 5000 | CNC(=O)Nc1c[nH]c2ccc(-c3cccc(C4CC4)c3)cc12 [Compound 122, 1-[5-(3-cyclopropylphenyl)-1H-indol-3-yl]-3-methylurea] |
| 200 to 1000 | O=C(NCC(F)(F)F)Nc1c[nH]c2ccc(-c3cnn(-c4ccc(C(F)(F)F)cn4)c3)cc12 [Compound 107, 1-(2,2,2-trifluoroethyl)-3-(5-(1-(5-(trifluoromethyl)pyridin-2-yl)-1H-pyrazol-4-yl)-1H-indol-3-yl)urea] |
| 1000 to 5000 | CCc1ccc(-n2cc(-c3ccc4[nH]cc(NC(=O)N5CCN(C(C)=O)CC5)c4c3)cn2)cc1 [Compound 108, 4-acetyl-N-{5-[1-(4-ethylphenyl)-1H-pyrazol-4-yl]-1H-indol-3-yl}piperazine-1-carboxamide] |
| 200 to 1000 | CCc1ccc(-n2cc(-c3ccc4[nH]cc(NC(=O)NCCOC)c4c3)cn2)cc1 [Compound 110, 1-(5-(1-(4-ethylphenyl)-1H-pyrazol-4-yl)-1H-indol-3-yl)-3-(2-methoxyethyl) urea] |
